According to patent US9173935B2, “Phospholipid drug analogs” (Telormedix SA, priority 2010, dated 2015):
Values joined by “and” are separate entries in the source; they are usually repeats but may differ in a detail not shown here. Equal entries are not always repeated. Where two headings read alike, the source gives them in different places.

Tests used:
PBMCs = experiment: IL-6 and TNF-alpha secretion in PBMCs from three donors (ELISA); type: cell-based, human
Description: EC50 values were determined for control and each drug candidate for IL-6 and TNF-alpha secretion. […] The cells were treated with TLR7 agonists for 24 hours in 7 doses. The conditioned media was removed for ELISA analyses for IL-6 and TNF-alpha, and cell survival determined by the XTT method according to the protocol from the supplier. […] Concentrations of IL-6 and TNF-alpha were determined by ELISA from R&D Systems using the Microsoft Excel Software. The results were analyzed in Graph Pad Prism in order to prepare dose-response curves, and for determination of EC50 values.

[1] = Plasma stability, second experiment, human plasma; settings: human plasma, second experiment
Description: Second experiment: Test compounds (5 mM in DMSO) were diluted at the final concentration of 250 μM with ACN-MeOH 1:1.
Human plasma (1.180 ml) was spiked with 20 μl of 250 μM solution of the compound (4.16 μM final concentration) and aliquots of 50 μl volume were taken at 0, 15, 30, 60, 120 min and 5 hrs, and immediately quenched with 200 μl of a solution of Verapamil 250 ng/ml (internal standard, I.S.) in ACN:MeOH 95:5. Samples were then centrifuged for 20 min at 3000 rpm at 10° C. and analyzed as reported below. […] The supernatant fractions were analyzed by LC/MS/MS. Zero-time incubations were used as 100% values.
Stability was calculated as percentage remaining of the area ratio compound/I.S. at each time point vs. area ratio compound/I.S. at time 0 min.

HLA-DR+/CD20+ B cells = experiment: FACS analysis of B cell activation (CD40) in whole blood; type: cell-based, human; settings: 24 hours, 2 and 10 uM, three donors
Description: (§1) A flow cytometric analysis was performed on whole blood from three donors after treatment with two compound concentrations for 24 h. The FACS analysis for donor 1 and donor 2 was made on another day than donor 3. The compound concentrations were as follows:
B cell activation: 2 and 10 uM
(§2) The FACS analysis was used to identify whether the test compounds could induce activation of B cells, and two different subsets of dendritic cells, namely the myeloid CD11c+/CD123− DCs and the plasmacytoid CD11c−/CD123+ DCs. The following markers were studied to identify the activation status of the different subsets:
(§3) The FACS staining was performed according to the manufacturer's instructions. Lysis of red blood cells was performed before FACS staining in order to minimize auto-florescence. To include as many B cells and DCs in the study as possible the FACS analyses were performed on 500,000 cells in total for each staining. A P1 gate was set only to include relevant cells on FSC vs. SSC (see FIGS. 12-15). The results of the individual analysis were present as Mean Fluorescence Intensity
The analysis of expression of the activation marker CD40 on B cells was made on double positive HLA-DR (MHC class II) (P4 gate) and CD20 cells (B cell marker) (P8 gate).

[2] = test system: HLA-DR+/CD11c+/CD123- mDCs; experiment: FACS analysis of myeloid DC activation in whole blood; type: cell-based, human; settings: 24 hours, 0.1 and 0.5 uM, three donors
Description: as §1, §2, §3
The analysis of myeloid DCs was based on HLA-DR+/CD11c+/CD123-cells, thus all analyzed cells was included in the HLA-DR+ (P3) gate and CD11c+/CD123− (Q4) gate (see gates in FIGS. 13-15).

CYP2C19 = CYP2C19 (Homo sapiens (Human), UniProt P33261); experiment: Fluorescent High Throughput P450 assay, CYP2C19; type: biochemical; settings: substrate CEC; read-out: CYP2C19 IC50 (Mean ± S.D.)
Description: (§4) Inhibition of the P450 isoforms was measured in specific assays using specific substrates that become fluorescent upon CYP metabolism. Compounds, dissolved in ACN (acetonitrile) (CYP2E1, CYP2C8, CYP2B6, CYP3A5) or DMSO (all remaining isoforms), were tested in duplicate (n=2) in concentration-response curves (eight concentrations) in a 96-well plate containing incubation/NADPH regenerating buffer. Specific isoenzymes and substrates were added and incubated at 37° C. Reactions were terminated at different times, depending on the assays, and plates read on a Fluoroskan Ascent at the appropriate emission/excitation wavelengths. Concentration-response curves performed in duplicate for known inhibitors for each isoenzyme were tested in every assay as positive control.

CYP2E1 = CYP2E1 (Homo sapiens (Human), UniProt P05181); experiment: Fluorescent High Throughput P450 assay, CYP2E1; type: biochemical; settings: substrate MFC; read-out: CYP2E1 IC50 (Mean ± S.D.)
Description: as §4

CYP2C8 = CYP2C8 (Homo sapiens (Human), UniProt P10632); experiment: Fluorescent High Throughput P450 assay, CYP2C8; type: biochemical; settings: substrate DBF; head of Table 31 prints CYP2CB; read-out: CYP2C8 IC50 (Mean ± S.D.)
Description: as §4

CYP2B6 = CYP2B6 (Homo sapiens (Human), UniProt P20813); experiment: Fluorescent High Throughput P450 assay, CYP2B6; type: biochemical; settings: substrate EFC; read-out: CYP2B6 IC50 (Mean ± S.D.)
Description: as §4

[3] = Serum exposure after intravesical chronic treatment
Description: Serum samples were taken at time points: day 0, 2 hours, day 1, 24 hours, and day 6, 2 hours.
The plate was shaken for 10 minutes and filtered under vacuum (5-10 mm Hg). […] The plate was shaken for 10 minutes and filtered under vacuum (5-10 mm Hg). Samples were evaporated and re-suspended in 70 microliters of acetonitrile/methanol 1:1. […] Column: Acquity BEH C18 50×2.1 mm 1.7 micrometers; injection volume 5 microliters, T column 50° C. […] Column: Acquity BEH C8 50×2.1 mm 1.7 micrometers injection. volume 10 microliters, T column 50° C.

[4] = test system: AY-27 rat bladder cancer cell-line
[5] = Day 1, 24 hours, LLOQ 0.5 ng/ml SC12, 2.5 ng/ml Imiquimod
[6] = Day 6, 2 hours, LLOQ 0.5 ng/ml SC12, 2.5 ng/ml Imiquimod
[7] = day 12, group 1 Imiquimod 0.1%, group 2 SC12 0.38%

Sequence of CYP2E1 (P05181 whole entry, looked up): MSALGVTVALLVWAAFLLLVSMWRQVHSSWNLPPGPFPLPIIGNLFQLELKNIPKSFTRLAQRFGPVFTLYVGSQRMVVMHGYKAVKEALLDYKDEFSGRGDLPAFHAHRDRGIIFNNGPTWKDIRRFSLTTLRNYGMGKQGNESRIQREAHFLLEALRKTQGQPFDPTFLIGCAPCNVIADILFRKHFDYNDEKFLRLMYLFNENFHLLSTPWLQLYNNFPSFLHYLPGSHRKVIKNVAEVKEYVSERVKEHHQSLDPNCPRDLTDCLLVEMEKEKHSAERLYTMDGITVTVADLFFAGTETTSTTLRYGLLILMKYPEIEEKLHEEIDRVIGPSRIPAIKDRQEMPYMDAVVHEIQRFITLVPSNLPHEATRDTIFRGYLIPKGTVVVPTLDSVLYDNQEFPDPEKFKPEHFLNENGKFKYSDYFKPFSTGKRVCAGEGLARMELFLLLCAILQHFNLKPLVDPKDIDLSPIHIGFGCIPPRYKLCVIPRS
Sequence of CYP2B6 (P20813 whole entry, looked up): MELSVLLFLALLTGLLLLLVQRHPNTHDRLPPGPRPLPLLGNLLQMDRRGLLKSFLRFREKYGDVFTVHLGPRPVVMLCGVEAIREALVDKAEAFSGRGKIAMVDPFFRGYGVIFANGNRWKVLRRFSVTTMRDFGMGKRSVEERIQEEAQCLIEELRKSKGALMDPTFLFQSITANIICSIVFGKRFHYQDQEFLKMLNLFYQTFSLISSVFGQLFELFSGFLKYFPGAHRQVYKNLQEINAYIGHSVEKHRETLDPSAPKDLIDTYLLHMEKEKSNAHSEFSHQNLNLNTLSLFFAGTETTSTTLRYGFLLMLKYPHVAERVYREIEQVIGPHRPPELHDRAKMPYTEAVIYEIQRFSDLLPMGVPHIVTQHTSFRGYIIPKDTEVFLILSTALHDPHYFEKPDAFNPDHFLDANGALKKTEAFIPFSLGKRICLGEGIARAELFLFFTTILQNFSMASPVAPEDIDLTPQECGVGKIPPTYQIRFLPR
Sequence of CYP2C19 (P33261 whole entry, looked up): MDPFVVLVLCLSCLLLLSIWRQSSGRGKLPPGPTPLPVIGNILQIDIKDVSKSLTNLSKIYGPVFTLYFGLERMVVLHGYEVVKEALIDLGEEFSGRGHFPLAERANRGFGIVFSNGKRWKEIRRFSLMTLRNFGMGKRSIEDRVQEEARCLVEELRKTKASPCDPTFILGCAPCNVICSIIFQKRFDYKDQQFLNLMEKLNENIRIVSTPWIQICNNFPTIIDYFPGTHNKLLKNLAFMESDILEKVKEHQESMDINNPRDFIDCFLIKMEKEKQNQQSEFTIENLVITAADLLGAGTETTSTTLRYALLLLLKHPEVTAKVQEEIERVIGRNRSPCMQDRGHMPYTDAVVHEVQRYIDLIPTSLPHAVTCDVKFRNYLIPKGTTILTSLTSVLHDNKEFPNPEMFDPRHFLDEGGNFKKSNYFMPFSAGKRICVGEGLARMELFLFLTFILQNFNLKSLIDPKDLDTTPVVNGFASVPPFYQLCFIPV
Sequence of CYP2C8 (P10632 whole entry, looked up): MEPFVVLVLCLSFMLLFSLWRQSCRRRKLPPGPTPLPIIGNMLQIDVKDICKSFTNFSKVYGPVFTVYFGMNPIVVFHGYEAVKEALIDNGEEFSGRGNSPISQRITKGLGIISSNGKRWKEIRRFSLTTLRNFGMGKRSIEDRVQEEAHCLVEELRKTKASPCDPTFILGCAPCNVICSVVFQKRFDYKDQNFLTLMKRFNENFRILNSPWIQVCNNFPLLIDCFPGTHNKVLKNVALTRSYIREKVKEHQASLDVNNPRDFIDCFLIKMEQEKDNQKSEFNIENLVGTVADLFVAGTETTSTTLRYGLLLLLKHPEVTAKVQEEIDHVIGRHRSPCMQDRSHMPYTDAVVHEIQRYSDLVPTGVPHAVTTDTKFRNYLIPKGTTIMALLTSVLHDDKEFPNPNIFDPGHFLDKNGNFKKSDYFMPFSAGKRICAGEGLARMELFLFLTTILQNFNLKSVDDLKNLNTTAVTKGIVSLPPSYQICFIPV

CCCCCCCCCCCC(=O)OCC(COP(=O)(O)OCCNC(=O)c1ccc(Cn2c(=O)[nH]c3c(N)nc(OCCOC)nc32)cc1)OC(=O)CCCCCCCCCCC (centres unmarked) [SC12]
EC50 (PBMCs; D1, first experiments on three donors, read-out: EC50 values, IL-6 secretion): 1.44 µM
EC50 (PBMCs; D2, first experiments on three donors, read-out: EC50 values, IL-6 secretion): 0.864 µM
EC50 (PBMCs; D3, first experiments on three donors, read-out: EC50 values, IL-6 secretion): 2.78 µM
EC50 (PBMCs; Donor 1, 24 hours, read-out: IL-6 secretion MC50): 1.44 µM
EC50 (PBMCs; Donor 1, 24 hours, read-out: TNFa secretion MC50): 0.995 µM
EC50 (PBMCs; Donor 2, 24 hours, read-out: IL-6 secretion MC50): 0.864 µM
EC50 (PBMCs; Donor 2, 24 hours, read-out: TNFa secretion MC50): 0.275 µM
EC50 (PBMCs; Donor 3, 24 hours, read-out: IL-6 secretion MC50): 2.78 µM
EC50 (PBMCs; Donor 3, 24 hours, read-out: TNFa secretion MC50): 0.121 µM
EC50 (PBMCs; average of three donors, read-out: IL-6 secretion Average EC50): 1.7 µM
EC50 (PBMCs; average of three donors, read-out: TNFa secretion Average EC50): 0.464 µM
% Remaining ([1]; 0 min): 100%
% Remaining ([1]; 15 min): 112.6 ± 1.0%
% Remaining ([1]; 30 min): 110.0 ± 1.0%
% Remaining ([1]; 60 min): 96.7 ± 6.3%
% Remaining ([1]; 120 min): 102.1 ± 8.7%
Plasma stability classification ([1]; up to 120 min): stable
CD40 expression (MFI) on B cells (HLA-DR+/CD20+ B cells): induced CD40 expression in donor 1 and donor 2 in all tested concentrations
CCR7 expression on mDCs [2]: less potent stimulator of CCR7 expression
CD80 expression on mDCs [2]: induced a noteworthy CD80 expression in all three donors
CD86 expression on mDCs [2]: induces a weak CD86 expression in donor 2 and 3, but not in donor 1
IC50 (CYP2C19): > 100 µM
IC50 (CYP2E1): 9.2 ± 0.1 µM
IC50 (CYP2C8): > 100 µM
IC50 (CYP2B6): > 100 µM
Levels in serum, Mean ± S.D. ([3]; Day 0, 2 hours): 0.5 ± 0.5 ng/mL
Levels in serum, individual mice ([3]; Day 0, 2 hours, intravesical Imiquimod 208 nmol or SC12 206.5 nmol, LLOQ 0.5 ng/ml SC12, 2.5 ng/ml Imiquimod): <LLOQ (2×) and 1.0 ng/ml and 0.5 ng/ml
Levels in serum, Mean ± S.D. [3, 5]: <LLOQ
Levels in serum, individual mice [3, 5]: <LLOQ
Levels in serum, Mean ± S.D. [3, 6]: <LLOQ
Levels in serum, individual mice [3, 6]: <LLOQ
Number of rats with a tumor positive bladder ([4]; day 12): 8 of 14
Rats with pT2 Tumor, number (% of 14) [4, 7]: 7 (50.0%)
Tumor free rats, number (% of 14) [4, 7]: 6 (42.9%)
Rats with pTa Tumor, number (% of 14) ([4]; day 12, group 2 SC12 0.38%): 1 (7.1%)
Mean weight of the rat bladders ([4]; day 12, intravesical 0.5 ml on day 2 and 5, group 1 Imiquimod 0.1%, group 2 SC12 0.38%): 0.1014 grams
Mean number of tumors per rat bladder ([4]; group 1 Imiquimod 0.1%, group 2 SC12 0.38%): 1.36
Mean invasion depth ([4]; tumor positive bladders, group 1 Imiquimod 0.1%, group 2 SC12 0.38%): 1.4250 mm
